The assay deals with D54 LucT luciferase reporter counterscreen, luminescence, 24 h. Description: luciferase activators in glycosylation-insensitive reporter cells, dose response, counter-screen for N-linked glycosylation inhibitor project, D54 LucT cells, luminescence, cherry pick (AID 624404). On the technique in general: A counterscreen serves to expose hits that act by an unwanted route or on another target.

Records with an inconclusive call do not appear. Activity calls are given as the source filed them.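 Rule for the calls: active = luciferase signal rise whose fitted curve crosses a set activity limit at or below the top valid tested dose; inconclusive = flat fit with 30 to 70% rise, or poor fit; inactive = signal falling, flat within 30%, or crossing above top dose.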

Turning to `CCn1c2ccccc2c2cc(NC(=O)COC(=O)c3ccccc3F)ccc21`, the AC35 was 4220 nM.

As for `O=C(N/N=C/c1cccnc1)c1cc(-c2ccccc2OCc2ccccc2)n[nH]1`, the AC35 is 2460 nM.

For `COc1ccc(CCCC(=O)NCc2ccccc2)cc1C`, the AC35 was 2780 nM.

Turning to `Cn1c(=O)[nH]c(=O)c2c1nc(N1CCN(Cc3ccccc3)CC1)n2CCCc1ccccc1`, the AC35 is 465 nM.

For `CNC(=O)c1cccc(NC(=O)c2ccccc2OCc2ccccc2)c1`, the AC35 is 454 nM.

In the case of `Cc1ccc(C(=O)N2CCC(C(=O)Nc3cccc([N+](=O)[O-])c3)CC2)cc1`, the AC35 is 1700 nM.

For `COc1ccccc1/C=N/NC(=O)c1cc2c(OC)c(OC)ccc2[nH]1`, the AC35 was 987 nM.

For `O=C(N/N=C/c1ccccn1)c1sc2ccccc2c1Cl`, the AC35 is 93.1 nM.

Regarding `COc1ccccc1NC(=O)/C=C/c1ccc2c(c1)OCO2`, the AC35 was 190 nM.

As to `Oc1[nH]c(N=C2N=c3ccccc3=N2)c2ccccc12`, the AC35 was 17.2 nM.

On to `Cc1cc(=O)oc2cc(OCC3CC(c4ccccc4)=NO3)ccc12` (stereo unspecified), for which the AC35 is 1540 nM.

For the compound `COc1ccc(C2NC(=S)NC3=C2CCCC3=C2SCCS2)cc1` (stereo unspecified), the AC35 is 186 nM.

With `O=C(C[C@H]1C/C=C\C[C@H](Cc2ccc(F)cc2)C(=O)O[C@@H](c2ccccc2)CNC1=O)N[C@@H](CO)Cc1ccccc1`, the AC35 is 575 nM.

For `Cc1ccnc(NC(=O)CN2C(=O)NC(C)(c3ccc4ccccc4c3)C2=O)c1` (stereo unspecified), the AC35 was 362 nM.

`COc1ccc(-n2c(=S)[nH]c3cc(C(=O)NC4CCCCC4)ccc3c2=O)c(OC)c1`: the AC35 is 414 nM.

Turning to `COc1ccc(S(=O)(=O)N2CCCCC2)cc1NC(=O)c1[nH]c(C)c(C(C)=O)c1C`, the AC35 is 621 nM.

As to `Cc1cc(=O)oc2cc(OCC(=O)N3c4ccccc4CC3C)ccc12` (stereo unspecified), the AC35 is 1370 nM.

`COc1cc2c(cc1OC)C(c1ccccc1)N(C(=O)c1ccccc1)CC2` (stereo unspecified): the AC35 is 321 nM.

With `CCCC(=O)Nc1nc2ccc(NC(=O)c3c(F)c(F)c(OC)c(F)c3F)cc2s1`, the AC35 was 2270 nM.

With `COc1cc2c(cc1OC)CN(c1ccc(-c3ccccc3OC)nn1)CC2`, the AC35 was 7870 nM.

On to `COc1cc(N=Nc2cccc(S(N)(=O)=O)c2)c2ccccc2c1N`, for which the AC35 is 1660 nM.

For `Cc1ccc2nsnc2c1NC(=O)c1ccc([N+](=O)[O-])o1`, the AC35 was 571 nM.

On to `O=C1OCC2=C1C(c1ccc3c(c1)OCO3)c1cc3c(cc1O2)OCO3` (stereo unspecified), for which the AC35 was 352 nM.

In the case of `Cc1cc(=O)[nH]c2c(C)cc(S(=O)(=O)N3CCCCC3)cc12`, the AC35 is 411 nM.

For `CN(C)c1ccc(/C=N/NC(=O)c2ccccc2Cl)cc1`, the AC35 is 119 nM.

Regarding `COc1ccc(/C=N/NC(=O)c2sccc2OCc2ccc(F)cc2)cc1OC`, the AC35 was 952 nM.

Consider `CC1(C)Cc2nc3sc4c(SCC(=O)NCc5ccccc5)ncnc4c3cc2CO1`, for which the AC35 is 15.7 nM.

On to `O=C(NCCN1C(=O)S/C(=C\c2ccc(Cl)cc2Cl)C1=O)C1=COCCO1`, for which the AC35 is 3410 nM.

Take `NC1(C(=O)O)CSSC1`: the AC35 was 3050 nM.

For `COc1cccc(C2=CC(c3cccs3)n3nnnc3N2)c1` (stereo unspecified), the AC35 is 951 nM.

As for `COc1cc(F)ccc1-c1csc(C(NC(C)=O)c2cccc(F)c2)n1` (stereo unspecified), the AC35 was 93.1 nM.

Turning to `Cc1cc(-c2nnc3n2N=C(c2ccc(-c4ccccc4)cc2)CS3)n[nH]1`, the AC35 was 1260 nM.

As for `COc1ccc(NC(=O)C2Cc3c(-c4cccc(NC(C)=O)c4)ccnc3O2)cc1` (stereo unspecified), the AC35 is 18.9 nM.

`Cc1cc(C)nc(/N=C(\N)Nc2ccc(CC(=O)OC(C)C)cc2)n1`: the AC35 was 1680 nM.

For `COc1cc(/C=C(/C(=O)c2cccs2)c2nc3ccccc3[nH]2)cc(OC)c1O`, the AC35 is 19.5 nM.

Take `CC(C)C1N=C(c2ccc3c(c2)OCO3)CC(c2ccccc2O)N1` (stereo unspecified): the AC35 was 3510 nM.

As to `COc1ccc(/C=C/C(=O)Oc2cccc(/C=N/NC(=O)COc3c(C)cccc3C)c2)cc1`, the AC35 is 3250 nM.

For the compound `CCN1C(=O)c2cccc3c(S(=O)(=O)Nc4ccccc4OC)ccc1c23`, the AC35 was 896 nM.

Consider `COc1cccc(Sc2ccccc2/C=N/NC(N)=O)c1`, for which the AC35 is 3390 nM.

Regarding `CCN(CCCNC(=O)COc1cc(=O)n(CC)c2ccccc12)Cc1ccccc1`, the AC35 was 517 nM.

With `COc1cc(F)ccc1-c1csc(C(NC(C)=O)c2ccc(F)c(F)c2)n1` (stereo unspecified), the AC35 was 270 nM.

Consider `COc1ccc(S(=O)(=O)Nc2ccc3c(c2)n(C)c(=O)n3C)cc1OC`, for which the AC35 is 104 nM.

As to `CCN(CC)c1ccc(/C=N\NC(=O)c2cccc3cc[nH]c23)cc1`, the AC35 was 1940 nM.

As to `COc1ccccc1CCC(=O)Nc1ccc2c(c1)c(=O)n(C)n2-c1cccs1`, the AC35 is 2330 nM.

`COc1cc(F)ccc1-c1csc(C(NC(C)=O)c2ccccc2)n1` (stereo unspecified): the AC35 was 243 nM.

`Cc1ccc(C(=O)N/C(=C/c2ccco2)C(=O)NCCc2c[nH]c3ccccc23)cc1`: the AC35 is 1750 nM.

Consider `COc1cccc(N2CCN(C(=O)c3[nH]c(C)c(C(C)=O)c3C)CC2)c1`, for which the AC35 was 4890 nM.

With `COC(=O)c1c(NC(=O)CN2C(=O)NC3(CCC(C)CC3)C2=O)sc2c1CCC2` (stereo unspecified), the AC35 was 592 nM.

Consider `O=C1Nc2ccccc2/C1=C/c1cnc[nH]1`, for which the AC35 was 7.09 nM.

In the case of `CC(C)(C)S(=O)(=O)N1C[C@@H]2CC/C=C\C/C(c3ccccc3)=C\2[C@H]1CCO`, the AC35 was 645 nM.

`c1ccc(CNc2ncnc3c2cnn3-c2ccccc2)cc1`: the AC35 is 719 nM.

With `COc1ccc2c(c1)[C@H]1[C@H](CO2)[C@H](c2ccccc2)[C@]2(C)C(=O)Nc3ccc(Br)cc3C(=O)N12`, the AC35 is 233 nM.

Regarding `COc1cc2c(cc1OC)C(c1cccs1)N(C(=O)c1ccncc1)CC2` (stereo unspecified), the AC35 is 1700 nM.

As to `O=C1NC(=O)N(Cc2ccco2)C(=O)/C1=C/C=C/c1ccco1`, the AC35 is 12300 nM.

On to `COc1cc(C(=O)Nc2ccc3c(c2)nc(C)n3C)cc(OC)c1OC`, for which the AC35 was 1130 nM.

With `Cc1cnc(NC(=O)C2CC(=O)N(c3cccc(Cl)c3)C2)s1` (stereo unspecified), the AC35 is 1600 nM.

As to `O=C(CN1CCC(O)(c2cccc(F)c2)CC1)NCCc1c[nH]c2ccccc12`, the AC35 is 972 nM.

With `O=C(c1ccccc1-c1ccccc1)N1CCN(c2ccccn2)CC1`, the AC35 is 2040 nM.

As to `COc1ccc(Cl)cc1S(=O)(=O)Nc1ccc2c(c1)n(C)c(=O)n2C`, the AC35 is 535 nM.

As for `Cn1c(-c2ccccc2)c(/C=N/NC(=O)c2cccnc2)c2ccccc21`, the AC35 is 171 nM.

On to `C=CCOc1ccc(/C=C2\SC(N3CCCCC3)=NC2=O)cc1`, for which the AC35 is 8.9 nM.

Consider `O=C(/C=C/c1cccc(Br)c1)c1ccc2c(c1)OCO2`, for which the AC35 is 951 nM.

Take `CC(C)(C)S(=O)(=O)N1C[C@H]2CC/C=C\C/C(c3ccccc3)=C\2[C@@H]1CCO`: the AC35 was 536 nM.

Turning to `COc1cc2c(cc1OC)C(c1ccccc1)N(C(=O)c1cccc(S(C)(=O)=O)c1)CC2` (stereo unspecified), the AC35 was 212 nM.

Take `COc1cc(NC(=O)c2ccccc2OCc2ccccc2)cc(OC)c1OC`: the AC35 was 1080 nM.

With `COc1ccc(-n2c(=S)[nH]c3cc(C(=O)Nc4ccc(C)c(F)c4)ccc3c2=O)c(OC)c1`, the AC35 is 245 nM.

Consider `Cc1nnc2n(c1=O)N=C(c1ccc(Cl)cc1)CS2`, for which the AC35 is 33.5 nM.

For the compound `CC(=O)C1=C(O)C(=O)N(c2ccc(Br)cn2)C1c1ccc(Br)cc1` (stereo unspecified), the AC35 was 55.2 nM.

For the compound `OCCCCCN=c1cc(-c2ccccc2)oc2ccc(Cl)cc12`, the AC35 was 2190 nM.

As to `Cn1c(=O)n(C)c2cc(C(=O)Nc3ccc4c(c3)OCO4)ccc21`, the AC35 was 1870 nM.

As for `CC(=O)c1ccc(Nc2nc(-c3sc(C)nc3C)cs2)cc1`, the AC35 was 17.3 nM.

Turning to `CC(C)/C=C1\CC/C(=C\c2cccnc2)C1=O`, the AC35 was 9160 nM.

With `O=C(COc1ccccc1CNCc1ccccc1)Nc1ccccc1`, the AC35 was 890 nM.

As to `CC(C)(C)OC(=O)[C@H](Cc1ccccc1)NC(=O)c1nc[nH]c1C(=O)N1CCc2ccccc2C1`, the AC35 was 2550 nM.

As to `O=C(/C=C/c1ccccc1Cl)c1ccc(O)cc1`, the AC35 is 201 nM.

With `CCN(CC)S(=O)(=O)c1ccc(N2CCOCC2)c(NC(=O)c2[nH]c(C)c(C(C)=O)c2C)c1`, the AC35 is 330 nM.

For the compound `COc1ccc(NC(=O)CSc2nc3ccsc3c(=O)n2Cc2ccccn2)c(OC)c1`, the AC35 is > 19500 nM (inactive).

On to `Cc1ccc(NC(=O)C(Cc2ccccc2)N2C(=O)C3C4CCC(C4)C3C2=O)cc1Cl` (stereo unspecified), for which the AC35 is 1680 nM.

For `CC(=O)Nc1cccc(-c2ccnc3c2CC(C)(C(=O)NCC2CC2)O3)c1` (stereo unspecified), the AC35 is 11500 nM.

For `C[C@@]12C(=O)Nc3cc(F)c(F)cc3C(=O)N1[C@H]1c3cc(Cl)ccc3OC[C@@H]1[C@@H]2c1ccccc1`, the AC35 was 1600 nM.

With `CN1/C(=C/C=C(/C#N)C(N)=O)C(C)(C)c2ccccc21`, the AC35 is 7.24 nM.

On to `COc1ccccc1N=CC1=C(O)CC(c2ccccc2)CC1=O` (stereo unspecified), for which the AC35 is 173 nM.

Consider `O=C(Nc1ccc(Cc2ccncc2)cc1)c1ccc([N+](=O)[O-])o1`, for which the AC35 is 2680 nM.

For the compound `CCOC(=O)c1[nH]c2c(c1-c1ccccc1)C(=O)CC(c1ccccc1)C2` (stereo unspecified), the AC35 is 2690 nM.

On to `Cn1cccc1/C=C1\SC(=Nc2cccc(O)c2)NC1=O`, for which the AC35 is 1760 nM.

`C=CCn1c(SCc2c(C)noc2C)nc2sc(C)c(C)c2c1=O`: the AC35 was 2020 nM.

Take `CC(Nc1nc(-c2ccccc2)nc2ccccc12)c1ccccc1` (stereo unspecified): the AC35 was 379 nM.

Take `COc1ccc(C2=NOC(C(=O)NCc3cccs3)C2)cc1` (stereo unspecified): the AC35 is 1140 nM.

On to `O=C(C=Cc1ccccc1F)c1ccccc1`, for which the AC35 is 199 nM.

In the case of `Nc1nc(-c2ccccn2)nc(N)c1Cc1ccc(Cl)cc1Cl`, the AC35 was 1480 nM.

For `Cc1cc(=O)n2c3c(c4c(cc13)c(CN(C)C)cc(=O)n4C)OC2`, the AC35 is 31.5 nM.

Consider `COc1ccc(CCNC(=O)c2cc(-c3ccco3)on2)cc1OC`, for which the AC35 is 15000 nM.

For `CCCCCCn1c(=O)n2n(c1=O)[C@@H]1CN(S(=O)(=O)c3ccc(C)cc3)C[C@]1(O)[C@@H](OC(=O)NCc1ccccc1)C2`, the AC35 was 717 nM.

As to `COc1ccc(Sc2nnc(Cc3ccccc3)c3ccccc23)cc1`, the AC35 was 4370 nM.

Consider `CSc1ncnc2c1ncn2CCCN[C@H](C)c1cccc2ccccc12`, for which the AC35 was 527 nM.

With `COc1cc(/C=N/n2cnc3scc(-c4cccs4)c3c2=O)cc(OC)c1OC`, the AC35 is 177 nM.

Values taken from PubChem BioAssay AID624404 (Broad Institute, 2012).
